In patent US20150087856A1, “MELANIN PRODUCTION INHIBITOR” (TAKASAGO INTERNATIONAL CORPORATION, priority 2012, published 2015):

Experiments:
Format in all cases: cell-based
B-16 melanoma cells [1] = experiment: Visual Evaluation Test for Melanin Production Inhibition in Pigment Cells; parameters: key to Visual evaluation of melanin production inhibition (whiteness of cell sediment): −: The same as the solvent control (black); +: Slightly different from the solvent control (dark gray); ++: Apparently different from the solvent control (light gray); +++: Cells were not colored (white); conditions: for Visual evaluation of melanin production inhibition (whiteness of cell sediment): B-16 melanoma cells, four days
Method: In plastic culture flasks (25 cm^2), B-16 melanoma cells were seeded at 5×10^4 per flask, and cultured in DMEM (Dulbecco's Modified Eagle's Medium) containing 10% serum [Nippon Suisan Kaisha, Ltd, trade name] in the presence of 5% carbon dioxide at a temperature of 37° C. On the next day, each test sample diluted with ethanol was added at concentrations in the medium of 3.13, 6.25, 12.5, 25, and 50 ppm, and the cells were cultured for further four days. After the culturing was finished, the medium was removed, and the cells were rinsed with phosphate buffered solution (hereinafter, referred to as PBS). Then, the cells were detached from each flask by using trypsin-containing PBS, and were harvested from the cell suspension by centrifugation. After the obtained cells were rinsed once with PBS, the whiteness of the sediment was visually observed. Compounds 2A and 2B were used as comparative materials.
Activity: The activity was evaluated by using the following four grades. −: The same as the solvent control (black) +: Slightly different from the solvent control (dark gray) ++: Apparently different from the solvent control (light gray) +++: Cells were not colored (white)

B-16 melanoma cells [2] = experiment: Cell growth ratio in the quantification test (cell count); conditions: 6.25 ppm, two days, relative to control
Method: (§1) In plastic culture flasks (25 cm^2), B-16 melanoma cells were seeded at 5×10^4 per flask, and cultured in DMEM containing 10% serum in the presence of 5% carbon dioxide at a temperature of 37° C. After culturing for three days, each test sample diluted with ethanol was added at a concentration in the medium of 6.25 ppm, and the cells were culture for further two days. After the culturing was finished, the medium was removed, and the cells were rinsed with phosphate buffered solution (hereinafter referred to as PBS). Then, the cells were detached from each flask by using trypsin-containing PBS, and harvested from the cell suspension by centrifugation. To the obtained cells, 2 ml of DMEM was added, and the cells were dispersed by gentle pipetting. Of the DMEM, 100 μl was diluted with DMEM to achieve 1×10^4 to 5×10^5 cells/ml. Then, the number of the cells was counted with Scepter™ 2.0 automated cell counter (Merck Millipore), and the cell growth ratio was determined. The cell growth ratio was determined by the following formula.
Cell growth ratio (%)=(number of cells of sample/number of cells of control)×100

B-16 melanoma cells [3] = experiment: Quantification Test for Melanin Production Inhibition in Pigment Cells (melanin inhibition ratio); conditions: 6.25 ppm; for Melanin production inhibition ratio: B-16 melanoma cells, two days; for Melanin production-inhibitory activity compared with arbutin in the quantification test: comparison with arbutin
Method: as §1
The rest of the cell suspension was again centrifuged, and the medium was removed. After that, an operation in which the cells were rinsed with 1 ml of very cool 5% trichloroacetic acid and centrifuged was repeated three times, and further the cells were rinsed twice by adding 1 ml of ethanol/ethyl ether (3:1 volume ratio) and centrifuged. Finally, the cells were rinsed once with 1 ml of ethyl ether, centrifuged, and air-dried over night. To the dried cells, 2 N NaOH was added, and melanin in the cells was dissolved in a water bath of 60° C. After cooling, the absorbance at 415 nm was measured by using a microplate reader (BIO-RAD MICROPLATE READER Benchmark-). From the measured value, the amount of melanin per 10^6 cells was calculated by conversion using a standard curve obtained by using synthesized melanin (NACALAI TESQUE, INC.), and the melanin inhibition ratio was determined. The melanin inhibition ratio was determined by the following formula:
Melanin inhibition ratio (%)=[(amount of melanin of control−amount of melanin of sample)/(amount of melanin of control)]×100

Molecule | Visual evaluation of melanin production inhibition (whiteness of cell sediment) (B-16 melanoma cells [1]; 3.13 ppm in medium) | Visual evaluation of melanin production inhibition (whiteness of cell sediment) (B-16 melanoma cells [1]; 6.25 ppm in medium) | Visual evaluation of melanin production inhibition (whiteness of cell sediment) (B-16 melanoma cells [1]; 12.5 ppm in medium) | Activity compared with arbutin in the visual evaluation test (B-16 melanoma cells [1]; comparison with arbutin) | Cell growth ratio (B-16 melanoma cells [2]) | Melanin production inhibition ratio (B-16 melanoma cells [3]) | Melanin production-inhibitory activity compared with arbutin in the quantification test (B-16 melanoma cells [3]) | Visual evaluation of melanin production inhibition (whiteness of cell sediment) (B-16 melanoma cells [1]; 25 ppm in medium) | Activity compared with arbutin in the visual evaluation test at 6.25 ppm (B-16 melanoma cells [1]; 6.25 ppm, comparison with arbutin) | Visual evaluation of melanin production inhibition (whiteness of cell sediment) (B-16 melanoma cells [1]; 50 ppm in medium)
2-isopropyl-5-methylcyclohexanols [Compound 1H] | + | ++ | +++ | almost the same activity as that of arbutin | 102.1% | 49.0% | higher melanin production-inhibitory activity than arbutin |  |  | 
CC(C)[C@@H]1CC[C@@H](C)C[C@@H]1O (relative stereo) [Compound 1I, (1S*,2S*,5R*)-2-isopropyl-5-methylcyclohexanol] |  | + | +++ |  |  |  |  |  |  | 
CC(C)[C@H]1CC[C@@H](C)C[C@@H]1O (relative stereo) [Compound 1J, (1S*,2R*,5R*)-2-isopropyl-5-methylcyclohexanol] |  | + | +++ |  |  |  |  |  |  | 
CC(C)[C@H]1CC[C@@H](C)C[C@H]1O (relative stereo) [Compound 1K, (1R*,2R*,5R*)-2-isopropyl-5-methylcyclohexanol] |  | + | +++ |  |  |  |  |  |  | 
OC[C@H]1O[C@@H](Oc2ccc(O)cc2)[C@H](O)[C@@H](O)[C@@H]1O [Arbutin, arbutin, reference compound] | + | ++ | +++ |  | 94.1% | 35.5% |  |  |  | 
C=C(C)[C@@H]1CC[C@@H](C)C[C@H]1O [Compound 1A, (1R,2S,5R)-5-methyl-2-isopropenylcyclohexanol] |  | − | ++ |  |  |  |  | +++ |  | 
CC1CCC(C(C)C)C(OCC(O)CO)C1 (stereo not shown) [Compound 1B, 3-(2-isopropyl-5-methylcyclohexyloxy)propane-1,2-diol] | + | ++ |  |  | 93.2% | 37.0% | higher melanin production-inhibitory activity than arbutin |  |  | 
CC1CCC(C(C)C)C(OCCCO)C1 (stereo not shown) [Compound 1C, 3-(2-isopropyl-5-methylcyclohexyloxy)propan-1-ol] | − | ++ | +++ | almost the same activity as that of arbutin | 103.1% | 52.0% | higher melanin production-inhibitory activity than arbutin |  |  | 
CC(O)CC(=O)OC1CC(C)CCC1C(C)C (stereo not shown) [Compound 1D, 2-isopropyl-5-methylcyclohexyl 3-hydroxybutyrate] | − | ++ | +++ | almost the same activity as that of arbutin | 104.9% | 52.8% | higher melanin production-inhibitory activity than arbutin |  |  | 
CC1CCC(C(C)C)C(OCCOCCO)C1 (stereo not shown) [Compound 1E, 2-(2-(2-isopropyl-5-methylcyclohexyloxy)ethoxy)ethanol] | − | + | ++ |  | 96.4% | 23.3% |  |  |  | 
CC(O)COC1CC(C)CCC1C(C)C (stereo not shown) [Compound 1F, 1-(2-isopropyl-5-methylcyclohexyloxy)propan-2-ol] |  | ++ | +++ | almost the same activity as that of arbutin |  |  |  |  |  | 
CC(=O)CC(=O)OC1CC(C)CCC1C(C)C (stereo not shown) [Compound 1G, 2-isopropyl-5-methylcyclohexyl 3-oxobutyrate] | + | +++ | +++ |  | 87.8% | 41.5% | higher melanin production-inhibitory activity than arbutin |  | higher activity than arbutin | 
CCNC(=O)C1CC(C)CCC1C(C)C (stereo not shown) [Compound 2A, N-ethyl-5-methyl-2-isopropylcyclohexane carboxamide, reference compound] |  | − | + |  |  |  |  | ++ |  | +++
CNC(=O)C(C)(C(C)C)C(C)C [Compound 2B, N,2,3-trimethyl-2-isopropylbutanamide, reference compound] |  |  |  |  |  |  |  | − |  | +
